Experimental data taken from patent publication US9526718B2, “Combination of effective substances causing synergistic effects of multiple targeting and use thereof” (VIVOZON, INC., priority 2011, dated 2016).

How the values were obtained:
[1] = tested on: neuropathic pain rat model (SNL); experiment: Neuropathic pain rat model (spinal nerve ligation, SNL), von Frey up-down mechanical threshold; type: in vivo; conditions: Example 1, s.c., alone or combined, MDL 11,939 2 or 5 mg/kg, ORG-25543 10 or 20 mg/kg, 30 and 60 min after administration
Method: In order to prepare a neuropathic pain rat model (spinal nerve ligation (SNL) model), a male adult Sprague-Dawley rat was anaesthetized with isoflurane and its spinal nerves L5 were tied firmly (Kim and Chung, An experimental model for peripheral neuropathy produced by segmental spinal nerve ligation in the rat. Pain, 50: 355-363, 1992). One week later after surgical operation, MDL 11,939 and ORG-25543 were administered respectively or in combination thereof, and a pain relieving effect was monitored.
MDL 11,939 (Tocris Bioscience, USA) and ORG-25543 (CBvest inc, Korea) were dissolved in DMA/PG (2:8). MDL 11,939 was subcutaneously injected into the rat model and, immediately, ORG-25543 was subcutaneously injected into another part of the rat model. Then, 30 minutes and 60 minutes after administration, the extent of pain suppression was analyzed based on behaviors of the rat model.
The behavioral experiment was carried out with strict observance of clinical test procedures including criteria on randomization, a blind test, and use of a control group. By providing a mechanical stimulus to the left sole of the foot, a shrinking reaction to the stimulus was measured. This measurement value was determined by an up-down method using a von Frey monofilament (Baik et al., 2003 E. J. Baik, J. M. Chung and K. Chung, Peripheral norepinephrine exacerbates neuritis-induced hyperalgesia, J Pain 4 (2003), pp. 212-221; Chaplan et al., 1994 S. R. Chaplan, F. W. Bach, J. W. Pogrel, J. M. Chung and T. L. Yaksh, Quantitative assessment of tactile allodynia in the rat paw, J Neurosci Methods 53 (1994), pp. 55-63; Dixon, 1980 W. J. Dixon, Efficient analysis of experimental observations, Annu. Rev. Pharmacol. Toxicol. 20 (1980), pp. 441-462).
In the same manner as Example 1, a male adult Sprague-Dawley rat was anaesthetized with isoflurane and its spinal nerves L5 were tied firmly. […]

serotonin release = conditions: hypothalamic, rat; cited from earlier work
5-HT2A receptor = 5-HT2A receptor (Homo sapiens, UniProt P28223); conditions: cited from earlier work
Sequence of 5-HT2A receptor (P28223 whole entry): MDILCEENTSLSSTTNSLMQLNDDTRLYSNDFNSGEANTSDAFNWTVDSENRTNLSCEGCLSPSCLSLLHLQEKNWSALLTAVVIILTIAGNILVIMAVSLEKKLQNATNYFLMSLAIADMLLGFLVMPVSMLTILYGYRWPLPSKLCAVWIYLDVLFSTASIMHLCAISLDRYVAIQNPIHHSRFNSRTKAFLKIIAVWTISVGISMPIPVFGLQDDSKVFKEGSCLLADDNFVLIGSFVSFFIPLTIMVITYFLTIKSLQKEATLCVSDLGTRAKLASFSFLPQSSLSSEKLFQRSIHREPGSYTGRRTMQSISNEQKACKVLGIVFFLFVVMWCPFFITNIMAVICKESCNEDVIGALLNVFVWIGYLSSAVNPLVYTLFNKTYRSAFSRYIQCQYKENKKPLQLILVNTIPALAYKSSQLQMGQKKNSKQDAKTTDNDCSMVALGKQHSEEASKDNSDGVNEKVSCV

SMILES: COc1cc(C(=O)NCC2(N(C)C)CCCC2)cc(OC)c1OCc1ccccc1 [ORG-25543]
- pain relieving (analgesic) effect [1]: no effect
- pain relieving (analgesic) effect ([1]; listed as ORG2553): no or very little pain relieving effect

SMILES: OC(c1ccccc1)C1CCN(CCc2ccccc2)CC1 (centres unmarked) [MDL 11,939]
- pain relieving (analgesic) effect [1]: no or very little pain relieving effect

SMILES: COc1cc2c(cc1OC)[C@@H]1Cc3ccc(OC)c(OC)c3CN1CC2 [d1-tetrahydropalmatine]
- serotonin release (serotonin release): mediates inhibition of serotonin release

SMILES: CC(C)=CCc1c(O)cc2oc3cc(O)c(O)c(CC=C(C)C)c3c(=O)c2c1O [γ-mangostin]
- antagonistic effect with respect to 5-HT2A receptor (5-HT2A receptor): antagonistic effect
